The target of one data set is hGPR40 receptor (Homo sapiens (Human), UniProt O14842). The experiment in a line: agonistic activity on hGPR40-CHO stably transfected cells (Fluo-4 / FLIPR). It counts as cell-based. Conditions: for activation at 0.1 µM: 100 nM, relative to linoleic acid well; for EC50: mean ± SD of three determinations. Here is the method: Experimental example 1 The agonistic activity of the compounds of the present invention on hGPR40-CHO stably transfected cells
The present invention used the following method to determine the GPR40 agonistic activity of the compounds of the invention:
hGPR40-CHO stably transfected cells were seeded into a 96-well plate at a density of 3×10^4/well, and incubated overnight in a 37° C., 5% CO2 cell incubator; the medium was discarded, 100 μl of HBSS was added to each well, and 100 μl of Fluo-4 dye solution containing Probenecid was added and incubated at 37° C. for 90 min. After the incubation, the Fluo-4 dye solution was sucked out, 100 μl of HBSS buffer was added, and the dye was washed away; 100 μl of HBSS containing Probenecid was added to each well, and incubated at 37° C. for 10 min; different concentrations of drugs were added to each well of the 96-well plate and FLIPR (Molecular Devices) was used for readings according to the parameter setting table. The experimental results were analyzed.

The nature of data set [1]: Evaluation of hepatotoxicity: serum ALT, AST and TBIL after 4 weeks of dosing. In kind it is in vivo. To be noted: for ALT (IU/L) / AST (IU/L) / TBIL (IU/L): serum, once a day for consecutive 4 weeks, x ± SD, n = 6. Here is the method: Experimental example 3 Evaluation of hepatotoxicity of the compounds of the present invention:
The test compounds were administered once a day for consecutive 4 weeks, blood was taken, and the contents of alanine aminotransferase (ALT), aspartate aminotransferase (AST), and total bilirubin (TBIL) were measured.

Another data set relates to normal mice. The experiment in a line: Oral glucose tolerance test (OGTT) in normal mice. It counts as in vivo, Kunming mice. Conditions: for effect on oral glucose tolerance in mice (in words): OGTT in normal mice, 20 mg/kg; for blood glucose level at 15 min / blood glucose level at 0 min / blood glucose level at 30 min / blood glucose level at 60 min / blood glucose level at 120 min: OGTT, 20 mg/kg by gavage, n = 8, in mmol/L (unit assumed); for blood glucose level at 15 min: 15 min after glucose load; for blood glucose level at 0 min: 30 min after dosing, before glucose load; for blood glucose level at 30 min: 30 min after glucose load; for blood glucose level at 60 min: 60 min after glucose load; for blood glucose level at 120 min: 120 min after glucose load. Here is the method: Experimental example 2 In vivo hypoglycemic activity of the compounds of the present invention can be determined by using an assay system as described below:
The mice were fasted for 12 hours before experiment and water was taken freely, each group was administrated by gavage, blood was taken from the tail, and the blood glucose level was measured (recorded as −30 min).

The source of these data is patent publication US11905230B2, “Phenoxyacetic acid derivatives, preparation method thereof and use thereof as medicament” (CHINA PHARMACEUTICAL UNIVERSITY, priority 2017, dated 2024).

Each structure is given as a SMILES string.

One may read the melting point as the temperature of the solid-liquid transition. By EC50 is commonly meant the concentration giving half of the maximal effect.

Chain of hGPR40 receptor (O14842 whole entry): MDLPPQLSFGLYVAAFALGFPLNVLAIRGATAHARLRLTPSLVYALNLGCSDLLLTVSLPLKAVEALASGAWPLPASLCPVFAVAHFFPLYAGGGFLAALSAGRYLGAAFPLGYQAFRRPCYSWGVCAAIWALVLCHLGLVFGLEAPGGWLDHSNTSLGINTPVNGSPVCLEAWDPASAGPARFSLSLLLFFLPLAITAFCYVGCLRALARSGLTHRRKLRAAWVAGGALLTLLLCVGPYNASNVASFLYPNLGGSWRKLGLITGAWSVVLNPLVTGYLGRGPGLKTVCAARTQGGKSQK

As to `Cc1cc(OC(F)(F)F)ccc1-c1cccc(CNc2ccc(OCC(=O)O)c(F)c2)c1` [Compound I-35, 2-(4-((4′-trifluoromethoxy-2′-methyl-[1,1′-biphenyl]-3-methylene)amino)2-fluorophenoxy)acetic acid], the melting point fell in the range of 123 to 125 °C. The same molecule showed an activation at 0.1 µM at hGPR40 receptor of 78%.
Regarding `CCCCCCOc1cc(C)c(-c2cccc(CNc3ccc(OCC(=O)O)c(F)c3)c2)c(C)c1` [Compound I-42, 2(2-fluoro-4-(((4′-(hexyloxy)-2′,6′-dimethyl-[1,1′-biphenyl]-3-yl)methyl)amino)phenoxy)acetic acid], the melting point lay within 132 to 135 °C.
Molecule `COc1ccccc1-c1cccc(CNc2ccc(OCC(=O)O)c(F)c2)c1` [Compound I-6, 2-(4-((2′-methoxy-[1,1′-biphenyl]-3-methylene)amino)-2-fluorophenoxy)acetic acid] had a melting point of 95 to 96 °C. Also, the activation at 0.1 µM on hGPR40 receptor was 53%.
`O=C(O)COc1ccc(NCc2cccc(-c3ccccc3F)c2)cc1` [Compound I-26, 2-(4-((2′-fluoro-[1,1′-biphenyl]-3-methylene)amino)phenoxy)acetic acid] yielded a melting point of 111 to 112 °C. Further, the activation at 0.1 µM at hGPR40 receptor turned out to be 61%.
The like results for `Cc1noc(C)c1-c1cccc(CNc2ccc(OCC(=O)O)c(F)c2)c1` [Compound I-14, 2-(4-((3-(3,5-dimethylisoxazol-4-yl)benzyl)amino)-2-fluorophenoxy)acetic acid] were, in that order, 72 to 73 °C and 54%.
In the case of `CCCCCCOc1cc(C)c(-c2cccc(CNc3ccc(OCC(=O)O)cc3)c2)c(C)c1` [Compound I-43, 2(4-(((4′-(hexyloxy)-2′,6′-dimethyl-[1,1′-biphenyl]-3-yl)methyl)amino)phenoxy)acetic acid], the melting point fell in the range of 130 to 132 °C.
With `CCOCCOc1cc(C)c(-c2cccc(CNc3ccc(OCC(=O)O)c(F)c3)c2)c(C)c1` [Compound I-36, 2-(2-fluoro-4-((4′-(2-ethoxyethoxy)-2′,6′-dimethyl-[1,1′-biphenyl]-3-methylene)amino)phenoxy)acetic acid], the melting point is 137 to 139 °C. In addition, the activation at 0.1 µM on hGPR40 receptor was 56%.
Regarding `Cc1ccccc1-c1cccc(CNc2ccc(OCC(=O)O)cc2)c1` [Compound I-25, 2-(4-((2′-methyl-[1,1′-biphenyl]-3-methylene)amino)phenoxy)acetic acid], the melting point was 101 to 104 °C. For the same molecule, in data set [1], the “ALT (IU/L)” value amounted to 51.78 ± 4.5 IU/L, the “AST (IU/L)” value is 116.54 ± 8.9 IU/L and the “TBIL (IU/L)” value is listed as 2.69 ± 0.4 IU/L. On hGPR40 receptor, this molecule showed an activation at 0.1 µM of 82% and an EC50 of 0.0173 ± 0.0033 µM. In addition, in the data set with normal mice, the “effect on oral glucose tolerance in mice (in words)” value is reported as “significantly improve oral glucose tolerance”, the “blood glucose level at 15 min” value is 8.47 ± 0.45, the “blood glucose level at 0 min” value was 4.48 ± 0.39 and the “blood glucose level at 30 min” value is 7.23 ± 0.39. For the same molecule, in the data set with normal mice, the “blood glucose level at 60 min” value was 5.11 ± 0.29 and the “blood glucose level at 120 min” value was 4.29 ± 0.39.
Consider `O=C(O)COc1ccc(NCc2cccc(-c3ccccc3OC(F)(F)F)c2)cc1` [Compound I-32, 2-(4-((2′-trifluoromethoxy-[1,1′-biphenyl]-3-methylene)amino)phenoxy)acetic acid], for which the melting point was 107 to 110 °C. The activation at 0.1 µM at hGPR40 receptor was 46%.
Molecule `Cc1cc(OC(F)(F)F)cc(C)c1-c1cccc(CNc2ccc(OCC(=O)O)c(F)c2)c1` [Compound I-34, 2-(4-((4′-trifluoromethoxy-2′,6′-dimethyl-[1,1′-biphenyl]-3-methylene)amino)-2-fluorophenoxy)acetic acid] came in with a melting point of 127 to 130 °C. This molecule also returned an activation at 0.1 µM on hGPR40 receptor of 64%.
Taken in the same sequence, the figures for `Cc1ccc(-c2cccc(CNc3ccc(OCC(=O)O)cc3)c2)c(Cl)c1` [Compound I-27, 2-(4-((2′-chloro-4′-methyl-[1,1′-biphenyl]-3-methylene)amino)phenoxy)acetic acid] were 111 to 114 °C and 69%.
Taken in the same sequence, the figures for `N#Cc1ccccc1-c1cccc(CNc2ccc(OCC(=O)O)c(F)c2)c1` [Compound I-7, 2-(4-((2′-Nitrile-[1,1′-biphenyl]-3-methylene)amino)-2-fluorophenoxy)acetic acid] were 137 to 140 °C and 45%.
Taken in the same sequence, the figures for `O=C(O)COc1ccc(NCc2cccc(-c3ccccc3OC(F)(F)F)c2)cc1F` [Compound I-33] were 111 to 113 °C and 50%.
`CCOCCOc1cc(C)c(-c2cccc(CNc3ccc(OCC(=O)O)cc3)c2)c(C)c1` [Compound I-37, 2-(4-((4′-(2-ethoxyethoxy)-2′,6′-dimethyl-[1,1′-biphenyl]-3-methylene)amino)phenoxy)acetic acid]: the melting point fell in the range of 133 to 136 °C. Further, on hGPR40 receptor, the activation at 0.1 µM worked out at 50%.
Taken in the same sequence, the figures for `COCOc1cc(C)c(-c2cccc(CNc3ccc(OCC(=O)O)c(F)c3)c2)c(C)c1` [Compound I-38, 2-(2-fluoro-4-((4′-(2-methoxymethoxy)-2′,6′-dimethyl-[1,1′-biphenyl]-3-methylene)amino)phenoxy)acetic acid] were 136 to 138 °C and 64%.
Turning to `CCOCOc1cc(C)c(-c2cccc(CNc3ccc(OCC(=O)O)c(F)c3)c2)c(C)c1` [Compound I-40, 2-(2-fluoro-4-((4′-(2-ethoxymethoxy)-2′,6′-dimethyl-[1,1′-biphenyl]-3-methylene)amino)phenoxy)acetic acid], the melting point was in the range of 136 to 139 °C. The activation at 0.1 µM at hGPR40 receptor was determined as 63%.
The like results for `COc1ccc(-c2cccc(CNc3ccc(OCC(=O)O)cc3)c2)c(C)c1` [Compound I-21] were, in that order, 121 to 124 °C and 75%.
On to `O=C(O)COc1ccc(NCc2cccc(-c3ccccc3Cl)c2)cc1F` [Compound I-2, 2-(4-((2′-chloro-[1,1′-biphenyl]-3-methylene)amino)-2-fluorophenoxy)acetic acid], for which, in data set [1] (4 weeks of dosing), the “AST, ALT and TBIL compared with STZ (blank) group (in words)” value is “equivalent to the blank group”. In data set [1], the “ALT (IU/L)” value was 47 ± 5.3 IU/L, the “AST (IU/L)” value is 118.43 ± 11.5 IU/L and the “TBIL (IU/L)” value came out at 2.61 ± 0.5 IU/L. At hGPR40 receptor, this molecule displayed an activation at 0.1 µM of 84% and an EC50 of 0.0163 ± 0.0046 µM. In addition, in the data set on normal mice, the “effect on oral glucose tolerance in mice (in words)” value is listed as “significantly improve oral glucose tolerance”, the “blood glucose level at 15 min” value was 6.24 ± 0.39, the “blood glucose level at 0 min” value is 4.25 ± 0.38 and the “blood glucose level at 30 min” value amounted to 6.73 ± 0.29. In the data set on normal mice, the “blood glucose level at 60 min” value was 4.28 ± 0.37 and the “blood glucose level at 120 min” value is 4.17 ± 0.52.
`Cc1cc(OC(C)C)ccc1-c1cccc(CNc2ccc(OCC(=O)O)c(F)c2)c1` [Compound I-22] showed a melting point of 134 to 137 °C. Moreover, the activation at 0.1 µM on hGPR40 receptor was 65%.
In the case of `COCOc1cc(C)c(-c2cccc(CNc3ccc(OCC(=O)O)cc3)c2)c(C)c1` [Compound I-39, 2-(4-((4′-(2-methoxymethoxy)-2′,6′-dimethyl-[1,1′-biphenyl]-3-methylene)amino)phenoxy)acetic acid], the melting point was 132 to 134 °C. This molecule also returned an activation at 0.1 µM at hGPR40 receptor of 60%.
With `CCOCOc1cc(C)c(-c2cccc(CNc3ccc(OCC(=O)O)cc3)c2)c(C)c1` [Compound I-41, 2-(4-((4′-(2-ethoxymethoxy)-2′,6′-dimethyl-[1,1′-biphenyl]-3-methylene)amino)phenoxy)acetic acid], the melting point fell in the range of 128 to 131 °C. The molecule further gave an activation at 0.1 µM at hGPR40 receptor of 59%.
In turn, `Cc1cc(OC2CCCCC2)cc(C)c1-c1cccc(CNc2ccc(OCC(=O)O)c(F)c2)c1` [Compound I-44, 2(2-fluoro-4-(((4′-(cyclohexyloxy)-2′,6′-dimethyl-[1,1′-biphenyl]-3-yl)methyl)amino)phenoxy)acetic acid] gave a melting point of 136 to 138 °C.
`Cc1cc(OC(C)C)ccc1-c1cccc(CNc2ccc(OCC(=O)O)cc2)c1` [Compound I-23] returned a melting point of 132 to 135 °C. Besides, the activation at 0.1 µM on hGPR40 receptor is 62%.
Taken in the same sequence, the figures for `COc1cc(C)c(-c2cccc(CNc3ccc(OCC(=O)O)cc3)c2)c(C)c1` [Compound I-18, 2-(4-((4′-methoxy-2′,6′-dimethyl-[1,1′-biphenyl]-3-methylene)amino)phenoxy)acetic acid] were 131 to 134 °C and 65%.
